Assay results taken from patent publication US8288549B2, “Glycine B antagonist” (Merz Pharma GmbH & Co. KGaA, priority 2008, dated 2012).
Counter-ions that a name gives are not always drawn.

Tests used:
[1] = molecular target: T1, NMDA receptor glycine B site (Rattus norvegicus, UniProt P35439); assay: Whole cell patch-clamp recordings in cultured rat hippocampal neurons (NMDA/D-Serine evoked currents); format: cell-based; details: NMDA (200 μM) and D-Serine (1 μM), holding potential −70 mV, read-out: NMDA-PC-r-HIC-NAM - IC50
T1 construct: Hippocampi are then isolated from the brains of at least 8 embryos after decapitation; endogenous in cells; host or cells: primary cultured hippocampal neurons from E20 Sprague-Dawley rat embryos, 11-15 DIV
Experimental: Antagonistic potencies of the test compounds are functionally evaluated using electrophysiological whole cell patch-clamp recordings and/or fluorometric intracellular Ca^2+-imaging (FLIPR) screens.
Cell preparation is performed as described by Parsons, et al. (Neuropharmacology, 1998, 37(6), 719-727). The female Sprague-Dawley rat is anaesthetised by placing in a saturated CO2-euthanasia chamber under further quiet CO2-influx. Under these conditions the rat loses consciousness after a few seconds and is then sacrificed by cervical dislocation. After opening the abdominal cavity, embryos (E20) are removed and stored in ice cold Ca^2+- and Mg^2+-free Hank's Buffered Salt Solution (pH 7.3), containing 4 g/l glucose (HBSS-CMF). Hippocampi are then isolated from the brains of at least 8 embryos after decapitation, transferred into ice cold HBSS-CMF and washed 3 to 4 times.
Hippocampi are pre-incubated for 8 min with a 0.66% trypsin (Sigma-Aldrich) and 0.1% (20 U/ml) DNAase solution (Sigma-Aldrich) in Ca^2+-free Phosphate Buffered Saline (PBS-CF) and washed 3 times with HBSS-CMF. Cells are then mechanically dissociated by trituration in a PBS-CF solution containing 0.05% (10 U/ml) DNAase and 0.3% of the trypsin inhibitor ovomucoid (all from Sigma-Aldrich). The cells are then centrifuged at 180×g for 10 minutes, and the cell pellet re-suspended in basal Minimum essential medium (MEM, Invitrogen, Karlsruhe, Germany), again carefully triturated to ensure maximal dissociation and finally plated in the flexiPERM inserts (Thermo Fisher Scientific, Langenselbold, Germany) at a density of 15×10^3 cells/cm^2 (0.5 ml/insert) onto poly-DL-ornithine (Sigma) and mouse laminin (Invitrogen) pre-coated plastic petri dishes. After 1 hour the cells become attached to the bottom of the dish and the inserts may be removed. The cells are then nourished with 2 ml MEM supplemented with 5% foetal calf serum (FCS) and 5% horse serum and incubated at 37° C. with 95% air and 5% CO2 at 95% humidity. After 4 days in vitro (DIV) further glial mitosis is inhibited by adding 10 μl of AraC (5 μM endconcentration). The medium is completely exchanged after an additional 2 DIV and again, but only partly (50%), after 8 DIV. The cells are used for electrophysiological recordings after 11-15 DIV.
Cells are visualised using an inverted microscope and selected for patching based upon their position and morphology. Voltage clamp recordings are made in the whole cell configuration of the patch clamp technique at a holding potential of −70 mV with the aid of an EPC-10 amplifier in combination with pipette manipulator. Patch clamp pipettes are pulled from borosilicate glass using a horizontal puller (P-97 Puller, Sutter Instruments, USA) and, when filled with intracellular solution, have resistances of 1-4 MΩ.
Solutions are delivered via a home-made gravity driven very fast perfusion system (<10 ms) including valves to switch flow on and off in combination with a stepper motor-driven double-barreled theta glass application pipette in order to expose cells to either agonist-free or agonist-containing solutions in presence or absence of antagonist.
The intracellular solution used consists of: 120 mM CsCl, 10 mM EGTA, 1 mM MgCl2, 200 μM CaCl2, 10 mM glucose and 22 mM tetraethyl ammonium chloride (TEA-CL). The corresponding extracellular bath solution contains: 140 mM NaCl, 3 mM KCl, 10 mM glucose, 10 mM HEPES, 1.5 mM CaCl2 and 4.5 mM sucrose (all from Sigma-Aldrich) pH 7.3, and is supplemented with 0.3 μM tetrodotoxin (TTX, Tocris, Bristol, U.K.) to block voltage-activated sodium channels and 0.25 μM bicuculline (Sigma-Aldrich) to block GABAA receptors. […]

Row | SMILES | melting point | IC50 [1]
1 | Br.Br.NCCCC[C@H](Nc1nc2ccc(Cl)cc2cc1C(=O)O)C(=O)O | 174 to 182 °C | –
2 | Nc1cc(C[C@H](Nc2nc3ccc(Cl)cc3cc2C(=O)O)C(=O)O)ccc1O | > 250 °C | –
3 | O=C(O)c1cc2cc(Cl)ccc2nc1N[C@@H](Cc1ccc(O)c(Cl)c1)C(=O)O | 150 to 175 °C (dec.) | –
4 | O=C(O)c1ccc(CC(Nc2nc3ccc(Cl)cc3cc2C(=O)O)C(=O)O)cc1 (stereo not drawn) | > 180 °C (dec.) | –
5 | Nc1ccc(CC(Nc2nc3ccc(Cl)cc3cc2C(=O)O)C(=O)O)cc1 (stereo not drawn) | > 250 °C (dec.) | –
6 | COc1cccc(CC(Nc2nc3ccc(Cl)cc3cc2C(=O)O)C(=O)O)c1 (stereo not drawn) | 165 to 170 °C (dec.) | –
7 | COc1ccccc1CC(Nc1nc2ccc(Cl)cc2cc1C(=O)O)C(=O)O (stereo not drawn) | > 180 °C (dec.) | –
8 | O=C(O)c1cccc(CC(Nc2nc3ccc(Cl)cc3cc2C(=O)O)C(=O)O)c1 (stereo not drawn) | > 250 °C (dec.) | –
9 | O=C(O)c1cc2cc(Cl)ccc2nc1NC(Cc1cccc(F)c1)C(=O)O (stereo not drawn) | 177 to 181 °C | –
10 | O=C(O)c1cc2cc(Cl)ccc2nc1NC(Cc1cccnc1)C(=O)O (stereo not drawn) | > 170 °C (dec.) | –
11 | O=C(O)c1cc2cc(Cl)ccc2nc1N[C@@H](Cc1ccc(Oc2ncccc2C(=O)O)cc1)C(=O)O (as salt: salt) [Example 100, 2-{(S)-1-Carboxy-2-[4-(3-carboxy-pyridin-2-yloxy)-phenyl]-ethylamino}-6-chloro-quinoline-3-carboxylic acid] | > 166 °C (dec.) | –
12 | O=C(O)c1cc2cc(Cl)ccc2nc1N[C@H](Cc1ccccc1)C(=O)O [Example 6, 2-((R)-1-Carboxy-2-phenyl-ethylamino)-6-chloro-quinoline-3-carboxylic acid] | – | 0.534 µM
13 | Cn1cc(C[C@H](Nc2nc3ccc(Cl)cc3cc2C(=O)O)C(=O)O)c2ccccc21 [Example 15, 2-[(S)-1-Carboxy-2-(1-methyl-1H-indol-3-yl)-ethylamino]-6-chloro-quinoline-3-carboxylic acid] | – | 1.36 µM
14 | O=C(O)c1cc2cc(Cl)ccc2nc1N[C@@H](Cc1ccc(Cl)cc1)C(=O)O [Example 23, 2-[(S)-1-Carboxy-2-(4-chloro-phenyl)-ethylamino]-6-chloro-quinoline-3-carboxylic acid] | – | 0.898 µM
15 | O=C(O)c1cc2cc(Cl)ccc2nc1NC(CCc1ccccc1)C(=O)O (stereo not drawn) [Example 28, 2-(1-Carboxy-3-phenyl-propylamino)-6-chloro-quinoline-3-carboxylic acid] | 179 to 182 °C (dec.) | –
16 | O=C(O)c1cc2cc(Cl)ccc2nc1N[C@@H](Cc1ccc(O)cc1)C(=O)O [Example 34, 2-[(S)-1-Carboxy-2-(4-hydroxy-phenyl)-ethylamino]-6-chloro-quinoline-3-carboxylic acid] | – | 1.67 µM
17 | O=C(O)c1cc2cc(Cl)c(Cl)cc2nc1N[C@H](Cc1c[nH]c2ccccc12)C(=O)O [Example 36, 2-[(R)-1-Carboxy-2-(1H-indol-3-yl)-ethylamino]-6,7-dichloro-quinoline-3-carboxylic acid] | – | 1.15 µM

Row | SMILES | melting point | IC50 [1]
18 | O=C(O)c1cc2ccccc2nc1N[C@H](Cc1ccccc1)C(=O)O [Example 44, 2-((R)-1-Carboxy-2-phenyl-ethylamino)-quinoline-3-carboxylic acid] | 140 to 141.5 °C | –
19 | O=C(O)c1cc2cc(Cl)ccc2nc1NC(Cc1ccc(O)c(F)c1)C(=O)O (stereo not drawn) [Example 52, 2-[1-Carboxy-2-(3-fluoro-4-hydroxy-phenyl)-ethylamino]-6-chloro-quinoline-3-carboxylic acid] | > 160 °C (dec.) | –
20 | Cc1cc(C)n(CC(Nc2nc3ccc(Cl)cc3cc2C(=O)O)C(=O)O)n1 (stereo not drawn) [Example 57, 2-[1-Carboxy-2-(3,5-dimethyl-pyrazol-1-yl)-ethylamino]-6-chloro-quinoline-3-carboxylic acid] | > 200 °C (dec.) | –
21 | O=C(O)c1cc2cc(Cl)ccc2nc1NC(Cc1ccc(C#Cc2ccccc2)cc1)C(=O)O (stereo not drawn) [Example 62, 2-[1-Carboxy-2-(4-phenylethynyl-phenyl)-ethylamino]-6-chloro-quinoline-3-carboxylic acid] | 164 to 173 °C | –
22 | COc1ccc(Cl)c(CC(Nc2nc3ccc(Cl)cc3cc2C(=O)O)C(=O)O)c1 (stereo not drawn) [Example 68, 2-[1-Carboxy-2-(2-chloro-5-methoxy-phenyl)-ethylamino]-6-chloro-quinoline-3-carboxylic acid] | 180 to 185 °C | –
23 | O=C(O)c1cc2cc(Cl)ccc2nc1NC(Cc1cccc(Oc2nc3ccc(Cl)cc3cc2C(=O)O)c1)C(=O)O (stereo not drawn) [Example 81, 2-{2-[3-(3-carboxy-6-chloro-quinolin-2-yloxy)-phenyl]-1-carboxy-ethylamino}-6-chloro-quinoline-3-carboxylic acid] | 186 to 197 °C (dec.) | –
24 | O=C(O)c1cc2cc(Cl)ccc2nc1NC(Cc1cccc(CC(Nc2nc3ccc(Cl)cc3cc2C(=O)O)C(=O)O)c1)C(=O)O (stereo not drawn) [Example 82, 2-{2-[3-[2-(3-Carboxy-6-chloro-quinolin-2-yl)amino-2-carboxy-ethyl]-phenyl]-1-carboxy-ethylamino}-6-chloro-quinoline-3-carboxylic acid] | > 185 °C (dec.) | –
25 | O=C(O)c1cc2cc(Cl)ccc2nc1NC(Cc1cccs1)C(=O)O (stereo not drawn) [Example 83, 2-(1-Carboxy-2-thiophen-2-yl-ethylamino)-6-chloro-quinoline-3-carboxylic acid] | > 250 °C (dec.) | –
26 | O=C(O)c1cc2cc(Cl)ccc2nc1NC(Cc1ccc(Oc2ccc3ccccc3n2)cc1)C(=O)O (stereo not drawn) [Example 96, 2-{1-Carboxy-2-[4-(quinolin-2-yloxy)-phenyl]-ethylamino}-6-chloro-quinoline-3-carboxylic acid] | 136 °C | –
27 | O=C(O)c1cc2cc(Cl)ccc2nc1NC(Cc1ccc(Nc2ccc3ccccc3n2)cc1)C(=O)O (stereo not drawn) [Example 108, 2-{1-Carboxy-2-[4-(quinolin-2-ylamino)-phenyl]-ethylamino}-6-chloro-quinoline-3-carboxylic acid] | – | 0.56 µM
28 | O=C(O)c1cc2cc(Cl)ccc2nc1NC(Cc1ccc(Oc2nc3ccccc3cc2C(=O)O)cc1)C(=O)O (stereo not drawn) [Example 110, 2-{1-Carboxy-2-[4-(3-carboxy-quinolin-2-yloxy)-phenyl]-ethylamino}-6-chloro-quinoline-3-carboxylic acid] | – | 0.38 µM
29 | O=C(O)C[C@H](Nc1nc2ccc(Cl)cc2cc1C(=O)O)C(=O)O [Example 114, (S)-2-(3-Carboxy-6-chloro-quinolin-2-ylamino)-succinic acid ammonia hydrate] | – | 0.72 µM
30 | O=C(O)c1cc2cc(Cl)cc(Cl)c2nc1NC(Cc1cccc(F)c1)C(=O)O (stereo not drawn) [Example 115, 2-[1-Carboxy-2-(3-fluoro-phenyl)-ethylamino]-6,8-dichloro-quinoline-3-carboxylic acid] | – | 0.51 µM
31 | O=C(O)c1cc2cc(Cl)ccc2nc1NC(COCc1ccccc1)C(=O)Nc1ccccc1 (stereo not drawn) [Example 117, 2-(2-Benzyloxy-1-phenylcarbamoyl-ethylamino)-6-chloro-quinoline-3-carboxylic acid] | 150 to 151 °C | –
32 | O=C(O)c1cc2cc(Cl)ccc2nc1N[C@@H](Cc1ccc(Oc2ccc3c(-c4ccccc4)nccc3n2)cc1)C(=O)O [Example 130, 2-{(S)-1-Carboxy-2-[4-(5-phenyl-[1,6]naphthyridin-2-yloxy)-phenyl]-ethylamino}-6-chloro-quinoline-3-carboxylic acid] | – | 0.19 µM
33 | O=C(O)c1cc2cc(Cl)ccc2nc1NC(C(=O)O)C(C(=O)O)c1cc(F)cc(F)c1 (stereo not drawn) [Example 136, 2-(3-Carboxy-6-chloro-quinolin-2-ylamino)-3-(3,5-difluoro-phenyl)-succinic acid] | 230 to 250 °C (dec.) | –
